Data from PubChem BioAssay AID1963837 (Molecular Pharmacology Branch, DTP, NCI, 2024).

Tested on: 843126-344-R-J1-PDC complex spheroid viability
Test: Anticancer human tumor 843126-344-R-J1-PDC patient-derived melanoma cell line growth inhibition [POLQ]
Conditions: for IC50: curve of first compound; for viability, T/C: stronger effect = lower value
Method in brief: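 Three-cell-type spheroids modelling solid tumor plus stroma served as the readout system; POL inhibitors were tested individually and in combination, concentration ranges set by clinical Cmax where known.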

[1] = second compound 0.0316 µM, first compound 0.0316 µM
[2] = second compound 0.0316 µM, first compound 0.1 µM
[3] = second compound 0.0316 µM, first compound 0.316 µM
[4] = second compound 0.0316 µM, first compound 1 µM
[5] = second compound 0.0316 µM, first compound 3.16 µM
[6] = second compound 0.0316 µM, first compound 10 µM
[7] = second compound 0.1 µM, first compound 0.0316 µM
[8] = second compound 0.1 µM, first compound 0.1 µM
[9] = second compound 0.1 µM, first compound 0.316 µM
[10] = second compound 0.1 µM, first compound 1 µM
[11] = second compound 0.1 µM, first compound 3.16 µM
[12] = second compound 0.1 µM, first compound 10 µM
[13] = second compound 0.316 µM, first compound 0.0316 µM
[14] = second compound 0.316 µM, first compound 0.1 µM
[15] = second compound 0.316 µM, first compound 0.316 µM
[16] = second compound 0.316 µM, first compound 1 µM
[17] = second compound 0.316 µM, first compound 3.16 µM
[18] = second compound 0.316 µM, first compound 10 µM
[19] = second compound 1 µM, first compound 0.0316 µM
[20] = second compound 1 µM, first compound 0.1 µM
[21] = second compound 1 µM, first compound 0.316 µM
[22] = second compound 1 µM, first compound 1 µM
[23] = second compound 1 µM, first compound 3.16 µM
[24] = second compound 1 µM, first compound 10 µM
[25] = second compound 3.16 µM, first compound 0.0316 µM
[26] = second compound 3.16 µM, first compound 0.1 µM
[27] = second compound 3.16 µM, first compound 0.316 µM
[28] = second compound 3.16 µM, first compound 1 µM
[29] = second compound 3.16 µM, first compound 3.16 µM
[30] = second compound 3.16 µM, first compound 10 µM
[31] = second compound 10 µM, first compound 0.0316 µM
[32] = second compound 10 µM, first compound 0.1 µM
[33] = second compound 10 µM, first compound 0.316 µM
[34] = second compound 10 µM, first compound 1 µM
[35] = second compound 10 µM, first compound 3.16 µM
[36] = second compound 10 µM, first compound 10 µM
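Wherever viability, T/C is given: spheroids exposed to drugs for seven days before readout.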

CCc1cc2c(N3CCc4c(cc(Cn5ccnc5)cc4-c4cn(C)nc4C(F)(F)F)C3=O)ccnc2c(OC)n1 + Cc1cccc(N(C)C(=O)C2C(O)CCN2c2nc(C)cc(C(F)(F)F)c2C#N)c1
IC50 (second compound 0.0316 µM): > 10 µM | IC50 (second compound 0.1 µM): > 10 µM | IC50 (second compound 0.316 µM): > 10 µM | IC50 (second compound 1 µM): > 10 µM | IC50 (second compound 3.16 µM): > 10 µM | IC50 (second compound 10 µM): > 10 µM | viability, T/C [1]: 91.3% | viability, T/C [2]: 79.8% | viability, T/C [3]: 80.6% | viability, T/C [4]: 83.3% | viability, T/C [5]: 69.9% | viability, T/C [6]: 61.4% | viability, T/C [7]: 90% | viability, T/C [8]: 88.4% | viability, T/C [9]: 87.1% | viability, T/C [10]: 90% | viability, T/C [11]: 72.3% | viability, T/C [12]: 60.4% | viability, T/C [13]: 99.6% | viability, T/C [14]: 74.9% | viability, T/C [15]: 86% | viability, T/C [16]: 78.5% | viability, T/C [17]: 69% | viability, T/C [18]: 61.2% | viability, T/C [19]: 101% | viability, T/C [20]: 77.3% | viability, T/C [21]: 86.3% | viability, T/C [22]: 73.5% | viability, T/C [23]: 68% | viability, T/C [24]: 55.3% | viability, T/C [25]: 100% | viability, T/C [26]: 84.8% | viability, T/C [27]: 79.3% | viability, T/C [28]: 72.4% | viability, T/C [29]: 69.3% | viability, T/C [30]: 63.1% | viability, T/C [31]: 88.2% | viability, T/C [32]: 92.2% | viability, T/C [33]: 75.5% | viability, T/C [34]: 68.8% | viability, T/C [35]: 70.7% | viability, T/C [36]: 64.4%

CC[C@@]1(O)C(=O)OCc2c1cc1n(c2=O)Cc2cc3c(CN(C)C)c(O)ccc3nc2-1 + Cc1cccc(N(C)C(=O)C2C(O)CCN2c2nc(C)cc(C(F)(F)F)c2C#N)c1
IC50 (second compound 0.0316 µM): > 0.1 µM | IC50 (second compound 0.1 µM): > 0.1 µM | IC50 (second compound 0.316 µM): > 0.1 µM | IC50 (second compound 1 µM): > 0.1 µM | IC50 (second compound 3.16 µM): > 0.1 µM | IC50 (second compound 10 µM): 0.0972 µM | viability, T/C (second compound 0.0316 µM, first compound 0.000316 µM): 98% | viability, T/C (second compound 0.0316 µM, first compound 0.001 µM): 105% | viability, T/C (second compound 0.0316 µM, first compound 0.00316 µM): 89.8% | viability, T/C (second compound 0.0316 µM, first compound 0.01 µM): 103% | viability, T/C [1]: 59.9% | viability, T/C [2]: 52.5% | viability, T/C (second compound 0.1 µM, first compound 0.000316 µM): 86% | viability, T/C (second compound 0.1 µM, first compound 0.001 µM): 92.9% | viability, T/C (second compound 0.1 µM, first compound 0.00316 µM): 110% | viability, T/C (second compound 0.1 µM, first compound 0.01 µM): 80.9% | viability, T/C [7]: 67.1% | viability, T/C [8]: 59.7% | viability, T/C (second compound 0.316 µM, first compound 0.000316 µM): 106% | viability, T/C (second compound 0.316 µM, first compound 0.001 µM): 102% | viability, T/C (second compound 0.316 µM, first compound 0.00316 µM): 93.1% | viability, T/C (second compound 0.316 µM, first compound 0.01 µM): 83.9% | viability, T/C [13]: 70.7% | viability, T/C [14]: 58.5% | viability, T/C (second compound 1 µM, first compound 0.000316 µM): 78.1% | viability, T/C (second compound 1 µM, first compound 0.001 µM): 113% | viability, T/C (second compound 1 µM, first compound 0.00316 µM): 89.3% | viability, T/C (second compound 1 µM, first compound 0.01 µM): 90.3% | viability, T/C [19]: 74% | viability, T/C [20]: 52.8% | viability, T/C (second compound 3.16 µM, first compound 0.000316 µM): 101% | viability, T/C (second compound 3.16 µM, first compound 0.001 µM): 96.1% | viability, T/C (second compound 3.16 µM, first compound 0.00316 µM): 108% | viability, T/C (second compound 3.16 µM, first compound 0.01 µM): 105% | viability, T/C [25]: 70% | viability, T/C [26]: 52.3% | viability, T/C (second compound 10 µM, first compound 0.000316 µM): 84.6% | viability, T/C (second compound 10 µM, first compound 0.001 µM): 83.9% | viability, T/C (second compound 10 µM, first compound 0.00316 µM): 74.6% | viability, T/C (second compound 10 µM, first compound 0.01 µM): 87.8% | viability, T/C [31]: 66.6% | viability, T/C [32]: 49.6%

CCc1cc2c(N3CCc4c(cc(Cn5ccnc5)cc4-c4cn(C)nc4C(F)(F)F)C3=O)cc(C)nc2c(OC)n1 + Cc1cccc(N(C)C(=O)C2C(O)CCN2c2nc(C)cc(C(F)(F)F)c2C#N)c1
IC50 (second compound 0.0316 µM): > 10 µM | IC50 (second compound 0.1 µM): > 10 µM | IC50 (second compound 0.316 µM): > 10 µM | IC50 (second compound 1 µM): > 10 µM | IC50 (second compound 3.16 µM): > 10 µM | IC50 (second compound 10 µM): > 10 µM | viability, T/C [1]: 90.8% | viability, T/C [2]: 92.8% | viability, T/C [3]: 80.9% | viability, T/C [4]: 77.7% | viability, T/C [5]: 72.4% | viability, T/C [6]: 61.9% | viability, T/C [7]: 99% | viability, T/C [8]: 88.5% | viability, T/C [9]: 79% | viability, T/C [10]: 79.9% | viability, T/C [11]: 71.5% | viability, T/C [12]: 64.1% | viability, T/C [13]: 94.3% | viability, T/C [14]: 93.2% | viability, T/C [15]: 82.4% | viability, T/C [16]: 72.3% | viability, T/C [17]: 69.8% | viability, T/C [18]: 62.3% | viability, T/C [19]: 85.4% | viability, T/C [20]: 89.5% | viability, T/C [21]: 77.3% | viability, T/C [22]: 70% | viability, T/C [23]: 75.5% | viability, T/C [24]: 63.8% | viability, T/C [25]: 90.8% | viability, T/C [26]: 86% | viability, T/C [27]: 87.7% | viability, T/C [28]: 70.9% | viability, T/C [29]: 77.8% | viability, T/C [30]: 56.8% | viability, T/C [31]: 92% | viability, T/C [32]: 79.9% | viability, T/C [33]: 80% | viability, T/C [34]: 74.2% | viability, T/C [35]: 82.5% | viability, T/C [36]: 54.4%
